The record followed here is patent US4888329A, “Antiulcer composition” (Senju Pharmaceutical Co., Ltd., priority 1987, dated 1989).

For data set [1], the system named is rat stress ulcer. Description: Effect on rat stress ulcer, intraperitoneal (Experimental Example 4). The class given is in vivo, male Wistar rats. The settings on record: for Length of ulcer: mean ± S.E., 7 h water immersion at 23° C., control 31.7 ± 3.64; for % Inhibition: length of ulcer vs control. The method, then:
The test drugs were administered intraperitoneally to male Wistar rats weighing about 130-190 g and after 30 minutes, the four limbs of each rat were fixed to a board with tying thread. The rats were then immersed in water at 23° C. for 7 hours for stress loading. Ten minutes before water immersion, 3 ml/kg of 5% Pontamine Sky Blue was intravenously injected. After 7-hour water immersion, the rats were removed from the water and stomach was excised and fixed in 1% aqueous formaldehyde. Then length of gastric ulcer induced was measured.
(§1) *physiological saline, 5 ml/kg
In the above table, each value in the column corresponding to length of ulcer is the mean ± S.E. and the figure in the parentheses denotes the number of cases.

The next data set is described as follows: Toxicity in rat (LD50). The settings on record: in vivo. From the text:
For instance, the toxicity in rat of disodium salt of phosphoric acid diester of L-ascorbic acid and DL-α-tocopherol was observed as follows: […]

In data set [2] the test system is indomethacin-induced ulcer. Briefly: Effect on indomethacin-induced ulcer (Experimental Example 3). The class given is in vivo, male Donryu rats. As to conditions: disodium salt; for Length of ulcer: 30 min before indomethacin, mean ± S.E., 7 h after indomethacin, control 30.8 ± 5.97; for % Inhibition: length of ulcer vs control. As to the method:
Male Donryu rats weighing 180-200 g were fasted for 24 hours and, then, a suspension of indomethacin in 1% carboxymethylcellulose (30 mg/[…]) was subcutaneously injected. The test drug was orally administered 30 minutes before indomethacin loading. Ten minutes before sacrifice at 7 hours after indomethacin loading, 3 ml/kg 5% Pontamine Sky Blue was intravenously injected. After sacrifice, the stomach was excised and fixed in 1% aqueous formaldehyde. Then, the length (mm) of the gastric ulcer induced was measured.
*5% gum arabic solution, 5 ml/kg
In the above table, each value in the column corresponding to the length of ulcer is the mean ± S.E. and the figure in parentheses denotes the number of cases.

The test system of data set [3] is rat stress ulcer. Briefly: Effect on rat stress ulcer, oral (Experimental Example 1). The class given is in vivo, male Wistar rats. The settings on record: disodium salt; for Length of ulcer: mean ± S.E., 5 h water immersion at 23° C., control 25.5 ± 4.29; for % Inhibition: length of ulcer vs control, 5 h water immersion. The method, then: The test drug was administered orally to male Wistar rats weighing 230-270 g and after 30 minutes, the four limbs of each rat were fixed to a board with tying thread. The rats were then immersed in water at 23° C. for 5 hours for stress loading. Ten minutes before water immersion, 3 ml/kg of 5% Pontamine Sky Blue was intravenously injected. After this 5-hour water immersion, the rats were removed from the water and the stomach was excised and fixed in 1% aqueous formaldehyde. Then, the length of the gastric ulcer induced was measured.
*Control: 5% gum arabic solution, 5 ml/kg
In the above table, each value in the column corresponding to length of ulcer is the mean ± S.E. (standard error) and the figure in parentheses denotes the number of the cases.

For data set [4], the system named is rat stress ulcer. Briefly: Effect on rat stress ulcer, intraperitoneal (Experimental Example 2). The settings on record: 10 mg/5ml/kg intraperitoneal, disodium salt. Format: in vivo, male Wistar rats. The method, then: The test drug was aministered intraperitoneally to male Wistar rats weighing about 150 g. After 30 minutes, each rat was fixed to a board with tying thread and immersed in water at 23° C. for 7 hours for stress loading. Ten minutes before water immersion, 3 ml/kg of 5% Pontamine Sky Blue was intravenously administered.
After this 7-hour water immersion, the rats were removed from the water and the stomach was excised and fixed in 1% aqueous formaldehyde. Then, the length (mm) of the gastric ulcer induced was measured.
as §1
In the above table, each value in the column corresponding to the length of ulcer is the mean ± S.E. and the figure in the parentheses denotes the number of cases.

Usually % Inhibition stands for the relative decrease from the control value, in per cent. Turning to `CN/C(=N/CCSCc1nc[nH]c1C)NC#N` [Cimetidine, reference compound], in the data set on rat stress ulcer [1] (200 mg/5 ml/kg intraperitoneal, n=5), the Length of ulcer is 7.4 ± 7.16 mm. Moreover, the “% Inhibition” value in the data set with rat stress ulcer [1] (200 mg/5 ml/kg intraperitoneal) is 76.7%.
The term LD50 denotes the dose at which mortality reaches 50%. A lower LD50 goes with greater toxicity. For the molecule `Cc1c(C)c2c(c(C)c1OP(=O)(O)OC1=C(O)[C@@H]([C@@H](O)CO)OC1=O)CCC(C)(CCCC(C)CCCC(C)CCCC(C)C)O2` (mixture of isomers) [α-EPC, phosphoric acid diester of L-ascorbic acid and DL-α-tocopherol], the LD50 in the data set “Toxicity in rat (LD50)” (po, per os) was > 10000 mg/kg; in the data set “Toxicity in rat (LD50)” (sc, subcutaneous administration), 793 mg/kg. For the same molecule, the Length of ulcer was found to be 20.4 ± 3.72 mm in data set [2] (300 mg/5 ml/kg oral, n=8); 3.5 ± 1.54 mm in data set [2] (1000 mg/5 ml/kg oral, n=9); 19.4 ± 6.91 mm with rat stress ulcer [3] (100 mg/5ml/kg oral, n=5); 10.3 ± 3.51 mm with rat stress ulcer [3] (1000 mg/5ml/kg oral, n=6); 7.7 ± 6.00 mm in the data set on rat stress ulcer [4] (mean ± S.E., n=6, 7 h water immersion at 23° C., control 34.3 ± 4.76); 8.5 ± 4.06 mm in the data set with rat stress ulcer [1] (10 mg/5 ml/kg intraperitoneal, disodium salt, n=10). The Length of ulcer in the data set on rat stress ulcer [1] (30 mg/5 ml/kg intraperitoneal, disodium salt, n=5) is recorded as 2.8 ± 1.27 mm. Besides, the “% Inhibition” value amounted to 33.8% in data set [2] (300 mg/5 ml/kg oral); 88.6% in data set [2] (1000 mg/5 ml/kg oral); 23.9% with rat stress ulcer [3] (100 mg/5ml/kg oral); 59.6% in the data set on rat stress ulcer [3] (1000 mg/5ml/kg oral); 77.6% in the data set with rat stress ulcer [4] (length of ulcer vs control, 7 h water immersion); 73.2% in the data set on rat stress ulcer [1] (10 mg/5 ml/kg intraperitoneal, disodium salt). Further, the “% Inhibition” value with rat stress ulcer [1] (30 mg/5 ml/kg intraperitoneal, disodium salt) was found to be 91.2%.
